Reference: patent US9994518B2, “Alpha-7 nicotinic acetylcholine receptor modulators and uses thereof” (MERCK SHARP & DOHME CORP., priority 2014, dated 2018)

What follows are compounds tested against T1, α7 nAChR (rat α7/CHO cells) (Rattus norvegicus, UniProt Q05941) (assay: Evaluation of modulators of α7 nAChRs using the IonFlux HT automated patch clamp system (potentiation of EC20 ACh-evoked currents)). Settings: percent potentiation of ACh (EC20, approx. 60 μM) response in α7/CHO cells; 6-point dose response 0.03-10 μM; whole cell patch clamp.
T1 construct: expressed in transfected cells; host or cells: CHO cells (α7/CHO)
Type: cell-based
Experimental: Evaluation of Modulators of α7 nAChRs Using the IonFlux^HT Automated Patch Clamp System
Acetylcholine was freshly prepared for each plate run and used at an EC20 concentration (approximately 60 μM for rat α7/CHO) to induce α7 nAChR currents on the IonFlux^HT. To prepare the ACh solution for a single plate, 6 μl of the 100 mM ACh stock was diluted into 10 ml of 0.3% DMSO/external solution
Test compounds were prepared for a 6-point dose response from 0.03-10 μM. Working stocks were prepared from serial dilutions of 10 mM DMSO stock solutions to give a final DMSO concentration of 0.3%. 80 μl of the final concentration of each compound was added to the appropriate wells in an IonFlux^HT assay plate.
2×T175 flasks of α7/CHO cells (˜60-70% confluent) were washed twice with PBS and trypsinized (2 ml) for 3.5 minutes at 37° C./5% CO2. Cells were collected in F-12K complete media, counted and the number required for the assay was calculated, for example, 2×10^6 cells in a final volume of 670 μl of external solution were required to load one zone (one quarter) of an IonFlux^HT assay plate. The correct number of cells was pelleted by centrifuge, the supernatant was discarded and the cell pellet was resuspend in external solution at the required concentration so that cells were added in a volume of 80 μl per well to the IonFlux^HT assay plate.
Calculation of the Effect of Compounds on ACh Mediated Currents in α7 nAChRs:
The effect of test compounds on EC20 ACh-evoked currents was calculated by the formula: […]
The rinse protocol was the initial step in preparation of the IonFlux^HT plate. 80 μl of MilliQ water was added to every well (except Out wells) and the IonFlux^HT assay plate was run through the water rinse protocol on the machine. At the end of the run, the water was discarded from the wells. This action was repeated twice.
Briefly, to prepare the plate for the assay aliquots of cells, compounds and internal and external solutions were added to wells of the prepared IonFlux^HT plate (80 μl/well) (solutions made to manufacturer's specifications). Automated whole cell patch-clamp recordings were made using the standard IonFlux^HT single application protocol. Vacuum was held at 6 psi/hg throughout the experiment and membrane potential was held at −80 mV for 35 sec and then at −60 mV during data acquisition. Two ACh (EC20) pulses were applied at the beginning of the assay, 90 seconds apart, to provide an ACh baseline response then cells were perfused with modulators for 89 sec before ACh (EC20) was applied for 1 s. The calculation of percent potentiation of the acetylcholine response for each well was performed by the data analysis software supplied with the IonFlux^HT.
The following compounds were tested in accordance with the above-procedure for activity and the EC50 values determined are reported: […]

T1 sequence (Q05941 23-502): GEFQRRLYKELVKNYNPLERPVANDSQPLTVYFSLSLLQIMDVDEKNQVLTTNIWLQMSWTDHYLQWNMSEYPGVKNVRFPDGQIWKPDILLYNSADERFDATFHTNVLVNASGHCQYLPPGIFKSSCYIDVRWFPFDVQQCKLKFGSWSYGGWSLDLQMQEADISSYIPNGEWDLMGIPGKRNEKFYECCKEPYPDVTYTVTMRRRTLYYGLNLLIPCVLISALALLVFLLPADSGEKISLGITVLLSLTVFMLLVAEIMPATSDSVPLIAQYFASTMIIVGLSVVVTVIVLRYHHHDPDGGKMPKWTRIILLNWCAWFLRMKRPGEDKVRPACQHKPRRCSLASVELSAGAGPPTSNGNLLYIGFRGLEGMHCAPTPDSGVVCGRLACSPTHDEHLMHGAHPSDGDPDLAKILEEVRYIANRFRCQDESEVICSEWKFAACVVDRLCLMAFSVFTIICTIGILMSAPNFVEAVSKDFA

First: COc1ccc(OC[C@H]2[C@H](c3ccc(S(N)(=O)=O)cc3)C2(C)C)c(OC)n1 (single isomer, unassigned) [Exp. 26]
Second: COc1ccc(OC[C@@H]2[C@@H](c3ccc(S(N)(=O)=O)cc3)C2(C)C)c(OC)n1 (single isomer, unassigned) [Exp. 21]
The EC50 of the first is 6.4-fold lower: 606 nM for the first, 3880 nM for the second. The first is the more potent here.

Compared with `COc1cc(F)ccc1OC[C@H]1[C@H](c2ccc(NS(N)(=O)=O)cc2)C1(C)C` (single isomer, unassigned) [Exp. 24], `COc1cc(Cl)ccc1OC[C@H]1[C@H](c2ccc(NS(N)(=O)=O)cc2)C1(C)C` (single isomer, unassigned) [Exp. 23] is 1.7-fold lower in EC50: 906 nM for the first, 546 nM for the second.

First: Cc1cc(F)ccc1OC[C@@H]1[C@@H](c2ccc(S(N)(=O)=O)cc2)C1(C)C (single isomer, unassigned) [Exp. 35]
Second: COc1cc(F)ccc1OC[C@@H]1[C@@H](c2ccc(S(N)(=O)=O)cc2)C1(C)C (single isomer, unassigned) [Exp. 29]
The EC50 of the first is 3.1-fold lower: 395 nM for the first, 1240 nM for the second.

Compared with `Cc1cc(F)ccc1OC[C@H]1[C@H](c2ccc(NS(N)(=O)=O)cc2)C1(C)C` (single isomer, unassigned) [Exp. 8], `Cc1cc(F)ccc1OC[C@H]1[C@H](c2ccc(NS(C)(=O)=O)cc2)C1(C)C` (single isomer, unassigned) [Exp. 7] is 2-fold higher in EC50: 517 nM for the first, 1050 nM for the second. The first is the more potent here.

Compared with `COc1ccc(Cl)cc1SC[C@@H]1[C@@H](c2ccc(S(N)(=O)=O)cc2)C1(C)C` (single isomer, unassigned) [Exp. 14], `COc1ccc(F)cc1OC[C@@H]1[C@@H](c2ccc(S(N)(=O)=O)cc2)C1(C)C` (single isomer, unassigned) [Exp. 43] is 3.5-fold higher in EC50: 452 nM for the first, 1560 nM for the second. The first is the more potent here.

Compared with `COc1ccccc1CC[C@@H]1[C@@H](c2ccc(S(N)(=O)=O)cc2)C1(C)C` (single isomer, unassigned) [Exp. 48], `COc1cc(F)ccc1OC[C@H]1[C@H](c2ccc(S(N)(=O)=O)cc2)C1(C)C` (single isomer, unassigned) [Exp. 30] is 4.1-fold higher in EC50: 612 nM for the first, 2520 nM for the second. The first is the more potent here.

Going from `CC1(C)[C@H](COc2ccc(F)cc2C#N)[C@H]1c1ccc(S(N)(=O)=O)cc1` (single isomer, unassigned) [Exp. 28] to `CC1(C)[C@@H](COc2ccc(F)cc2C#N)[C@@H]1c1ccc(S(N)(=O)=O)cc1` (single isomer, unassigned) [Exp. 32], the EC50 falls from 3100 nM to 811 nM (3.8-fold). The second is the more potent here.

Going from `Cc1ncccc1OC[C@H]1[C@H](c2ccc(S(N)(=O)=O)cc2)C1(C)C` (single isomer, unassigned) [Exp. 34] to `Cc1ncccc1OC[C@H]1[C@H](c2ccc(NS(C)(=O)=O)cc2)C1(C)C` (single isomer, unassigned) [Exp. 19], the EC50 falls from 1620 nM to 350 nM (4.6-fold).

`COc1cc(F)ccc1OC[C@H]1C[C@@H]1c1ccc(S(N)(=O)=O)cc1` (single isomer, unassigned) [Exp. 44] and `COc1ccc(Cl)cc1OC[C@H]1C[C@@H]1c1ccc(S(N)(=O)=O)cc1` (single isomer, unassigned) [Exp. 47] are within 1.5-fold of each other in EC50: 2940 nM for the first, 3700 nM for the second.

`Cc1ccc(SC[C@@H]2[C@@H](c3ccc(S(N)(=O)=O)cc3)C2(C)C)cc1` (single isomer, unassigned) [Exp. 15] and `Cc1ccc(SC[C@H]2[C@H](c3ccc(S(N)(=O)=O)cc3)C2(C)C)cc1` (single isomer, unassigned) [Exp. 13] are within 1.5-fold of each other in EC50: 75 nM for the first, 70 nM for the second.

Going from `COc1ccc(F)cc1OC[C@H]1[C@H](c2ccc(S(N)(=O)=O)cc2)C1(C)C` (single isomer, unassigned) [Exp. 36] to `N#Cc1cc(F)ccc1OC[C@H]1C[C@@H]1c1ccc(S(N)(=O)=O)cc1` (single isomer, unassigned) [Exp. 45], the EC50 rises from 164 nM to 2510 nM (15-fold). The first is the more potent here.

First: COc1ccc(OC[C@H]2[C@H](c3ccc(NS(C)(=O)=O)cc3)C2(C)C)cn1 (single isomer, unassigned) [Exp. 6]
Second: NS(=O)(=O)c1ccc([C@@H]2C[C@H]2COc2ccc(F)cc2C(F)(F)F)cc1 (single isomer, unassigned) [Exp. 38]
The EC50 of the first is 1.9-fold lower: 596 nM for the first, 1140 nM for the second. The first is the more potent here.

Work on `NS(=O)(=O)c1ccc([C@H]2C[C@@H]2COc2ccc(F)cc2C(F)(F)F)cc1` (single isomer, unassigned) [Exp. 46] yielded an EC50 of 701 nM.
